*1 amine or outer side, *2 acyl side, *3 side chain or, on linkers, in order; H or OH if unused. Where a SMILES comes first, the peptide text is derived from it. Bridges are numbered along the chain shown (N, C = ends). [ ]: non-standard residue; d: D form. The star is where a group is joined. hPhe(3,5-F2-4-CF3) = N[C@@H](CCc1cc(F)c(C(F)(F)F)c(F)c1)C(=O)O; hPhe(3-Cl-4-CF3) = N[C@@H](CCc1ccc(C(F)(F)F)c(Cl)c1)C(=O)O; NPrPhe(4-CF3) = CCCN[C@@H](Cc1ccc(C(F)(F)F)cc1)C(=O)O; X39 = Cc1ccc(C[C@@H](C(=O)[*:2])N(CC(C)C)[*:1])cc1; NMeGly(cPent) = CN[C@H](C(=O)O)C1CCCC1; NMeD = CN[C@@H](CC(=O)O)C(=O)O; NMeL = CN[C@@H](CC(C)C)C(=O)O; αMeS = C[C@](N)(CO)C(=O)O; Morpholide = C1CN(*)CCO1; NMeA = CN[C@@H](C)C(=O)O; Ac5c = NC1(C(=O)O)CCCC1; Aze = O=C(O)[C@@H]1CCN1; Sar = CNCC(=O)O; tBu = CC(C)(C)*
Legend:
[1] = target: GDP-bound HRAS wild-type protein (Homo sapiens, UniProt P01112); experiment: Binding to HRAS by surface plasmon resonance (SPR), Single Cycle Kinetics
Chain of GDP-bound HRAS wild-type protein (P01112 whole entry): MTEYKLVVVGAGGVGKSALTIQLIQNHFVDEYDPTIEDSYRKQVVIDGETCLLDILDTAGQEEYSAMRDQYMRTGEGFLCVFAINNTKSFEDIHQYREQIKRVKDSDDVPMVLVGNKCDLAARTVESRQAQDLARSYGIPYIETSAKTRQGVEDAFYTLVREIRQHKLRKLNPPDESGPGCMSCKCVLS

[2] = target: GDP-bound NRAS wild-type protein (Homo sapiens, UniProt P01111); experiment: Binding to NRAS by surface plasmon resonance (SPR), Single Cycle Kinetics
Chain of GDP-bound NRAS wild-type protein (P01111 whole entry): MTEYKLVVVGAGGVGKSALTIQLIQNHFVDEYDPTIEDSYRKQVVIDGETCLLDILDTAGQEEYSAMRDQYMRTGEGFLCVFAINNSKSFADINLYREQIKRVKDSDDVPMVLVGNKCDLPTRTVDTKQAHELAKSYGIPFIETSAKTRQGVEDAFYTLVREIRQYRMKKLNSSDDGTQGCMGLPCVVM

[3] = KD ratio HRAS/KRAS, class symbols
[4] = KD ratio NRAS/KRAS, class symbols

## CCO[C@@H]1C[C@H]2C(=O)NC3(CC(C)(C)C3)C(=O)N(C)[C@@H](C3CCCC3)C(=O)N(C)[C@H](C(=O)N(C)CC)CC(=O)N(C)[C@@H](CC(C)C)C(=O)N[C@@H]([C@@H](C)OCC)C(=O)N(C)CC(=O)N(C)[C@H]3C/C=C\CCN(C3=O)[C@@H](Cc3ccc(C(F)(F)F)cc3)C(=O)N(C)CC(=O)N[C@@H](CCc3cc(F)c(C(F)(F)F)c(F)c3)C(=O)N2C1 [PP1919]
[1]; KD ratio, GDP-bound HRAS wild-type vs GDP-bound KRAS wild-type, SPR
  HRAS/KRAS (ratio of KD value for HRAS to KD value for KRAS): A (a compound having 10 or more and less than 20 is denoted as A)
[2]; KD ratio, GDP-bound NRAS wild-type vs GDP-bound KRAS wild-type, SPR
  NRAS/KRAS (ratio of KD value for NRAS to KD value for KRAS): A (a compound having 10 or more and less than 20 is denoted as A)

## C#CC[C@H]1C(=O)N[C@@H]([C@@H](C)CC)C(=O)N(C)CC(=O)N(C)[C@H]2C/C=C\CCN(C2=O)[C@@H](Cc2ccc(C(F)(F)F)cc2)C(=O)N(C)CC(=O)N[C@@H](CCc2ccc(C(F)(F)F)c(Cl)c2)C(=O)N2C[C@H](OCC)C[C@H]2C(=O)NC2(CC(C)(C)C2)C(=O)N(C)[C@@H](C2CCCC2)C(=O)N(C)[C@H](C(=O)N(C)CC)CC(=O)N1C [PP2844]
[1]; [3]
  HRAS/KRAS (ratio of KD value with respect to GDP-bound HRAS wild-type protein to KD value with respect to KRAS): A (a compound having 10 or more and less than 20 is denoted as A)
[2]; [4]
  NRAS/KRAS (ratio of KD value with respect to GDP-bound NRAS wild-type protein to KD value with respect to KRAS): A (a compound having 10 or more and less than 20 is denoted as A)

## CCC[C@H]1C(=O)N[C@@H]([C@@H](C)CC)C(=O)N(C)CC(=O)N(C)[C@H]2C/C=C\CCN(C2=O)[C@@H](Cc2ccc(C)cc2)C(=O)N(C)CC(=O)N[C@@H](CCc2cc(F)c(C(F)(F)F)c(F)c2)C(=O)N2CC3(CC3)C[C@H]2C(=O)NC2(CC(C)(C)C2)C(=O)N(C)[C@@H](CC(C)(C)C)C(=O)N(C)[C@H](C(=O)N(C)C)CC(=O)N1C [PP2997]
[1]; KD ratio HRAS/KRAS, SPR, GDP-bound wild-type proteins
  HRAS/KRAS (ratio of KD value with respect to GDP-bound HRAS wild-type protein to KD value with respect to KRAS): B (a compound having 3 or more and less than 10 is denoted as B)
[2]; KD ratio NRAS/KRAS, SPR, GDP-bound wild-type proteins
  NRAS/KRAS (ratio of KD value with respect to GDP-bound NRAS wild-type protein to KD value with respect to KRAS): A (a compound having 10 or more and less than 20 is denoted as A)

## CCO[C@@H]1C[C@H]2C(=O)NC3(CC(C)(C)C3)C(=O)N(C)[C@@H](C3CCCC3)C(=O)N(C)[C@H](C(=O)N(C)CC)CC(=O)N(C)[C@@H](CC(C)C)C(=O)N[C@@H]([C@@H](C)CC)C(=O)N(C)CC(=O)N(C)[C@H]3C/C=C\CCN(C3=O)[C@@H](Cc3ccc(C(F)F)cc3)C(=O)N(C)CC(=O)N[C@@H](CCc3ccc(C(F)(F)F)c(OC)c3)C(=O)N2C1 [PP2828]
[1]; [3]
  HRAS/KRAS (ratio of KD value with respect to GDP-bound HRAS wild-type protein to KD value with respect to KRAS): A (a compound having 10 or more and less than 20 is denoted as A)
[2]; [4]
  NRAS/KRAS (ratio of KD value with respect to GDP-bound NRAS wild-type protein to KD value with respect to KRAS): A (a compound having 10 or more and less than 20 is denoted as A)

## CC[C@H](C)[C@@H]1NC(=O)[C@H](CC(C)C)N(C)C(=O)C[C@@H](C(=O)N2CCOCC2)N(C)C(=O)[C@H](C2CCCC2)N(C)C(=O)C2(CCCC2)NC(=O)[C@@H]2CCCN2C(=O)[C@H](CCc2ccc(C(F)(F)F)c(Cl)c2)NC(=O)CN(C)C(=O)[C@H](Cc2ccc(C)cc2)N(CC(C)C)C(=O)[C@@H]2CCN2C(=O)[C@H](C)N(C)C1=O [PP0056] ([NMeL]I[NMeA][Aze][X39][Sar][hPhe(3-Cl-4-CF3)]P[Ac5c][NMeGly(cPent)][NMeD]-Morpholide; lactam N-11)
[1]; KD ratio HRAS/KRAS, SPR
  HRAS/KRAS (ratio of KD for GDP-bound HRAS wild-type to KD for KRAS): B (a compound having 3 or more and less than 10 is denoted as B)
[2]; KD ratio NRAS/KRAS, SPR
  NRAS/KRAS (ratio of KD for GDP-bound NRAS wild-type to KD for KRAS): C (A compound having a KD ratio of 0.1 or more and less than 3 is denoted as C)

## CCCN1C(=O)[C@@H]2CCN2C(=O)CN(C)C(=O)[C@H]([C@@H](C)CC)NC(=O)[C@H](CC(C)C)N(C)C(=O)C[C@@H](C(=O)N2CCOCC2)N(C)C(=O)[C@H](C2CCCC2)N(C)C(=O)[C@](C)(COC(C)(C)C)NC(=O)[C@@H]2CCCN2C(=O)[C@H](CCc2cc(F)c(C(F)(F)F)c(F)c2)NC(=O)CN(C)C(=O)[C@@H]1Cc1ccc(C(F)(F)F)cc1 [PP0800] ([NMeL]I[Sar][Aze][NPrPhe(4-CF3)][Sar][hPhe(3,5-F2-4-CF3)]P[αMeS](tBu)[NMeGly(cPent)][NMeD]-Morpholide; lactam N-11)
[1]; KD ratio HRAS/KRAS, SPR
  HRAS/KRAS (ratio of KD value with respect to GDP-bound HRAS wild-type protein to KD value with respect to KRAS): B (a compound having 3 or more and less than 10 is denoted as B)
[2]; KD ratio NRAS/KRAS, SPR
  NRAS/KRAS (ratio of KD value with respect to GDP-bound NRAS wild-type protein to KD value with respect to KRAS): C (A compound having a KD ratio of 0.1 or more and less than 3 is denoted as C)

## CCO[C@@H]1C[C@H]2C(=O)NC3(CC(C)(C)C3)C(=O)N(C)[C@@H](C3CCCC3)C(=O)N(C)[C@H](C(=O)N(C)CC)CC(=O)N(C)[C@@H](CC(C)C)C(=O)N[C@@H]([C@@H](C)CC)C(=O)N(C)CC(=O)N(C)[C@H]3C/C=C\CCN(C3=O)[C@@H](Cc3ccc(C(F)F)cc3)C(=O)N(C)CC(=O)N[C@@H](CCc3cc(F)c(C(F)(F)F)c(F)c3)C(=O)N2C1 [PP2046]
[1]; SPR, GDP-bound HRAS wild-type vs GDP-bound KRAS wild-type
  HRAS/KRAS (ratio of KD value with respect to HRAS to KD value with respect to KRAS): A (a compound having 10 or more and less than 20 is denoted as A)
[2]; SPR, GDP-bound NRAS wild-type vs GDP-bound KRAS wild-type
  NRAS/KRAS (ratio of KD value with respect to NRAS to KD value with respect to KRAS): A (a compound having 10 or more and less than 20 is denoted as A)

— patent publication US20250230193A1, “CYCLIC COMPOUND HAVING SELECTIVE KRAS INHIBITORY EFFECT ON HRAS AND NRAS” (CHUGAI SEIYAKU KABUSHIKI KAISHA, priority 2022, published 2025)
